The record followed here is article PMC4118827, “Mapping the conformational space accessible to catechol-O-methyltransferase” (Acta Crystallographica Section D: Biological Crystallography, 2014).

Assay [1] addresses T1, humanized rat COMT (hrCOMT), catechol-O-methyltransferase (Rattus norvegicus, UniProt P22734, M134I/Y138C).
T1 sequence (P22734 44-264 M134I/Y138C): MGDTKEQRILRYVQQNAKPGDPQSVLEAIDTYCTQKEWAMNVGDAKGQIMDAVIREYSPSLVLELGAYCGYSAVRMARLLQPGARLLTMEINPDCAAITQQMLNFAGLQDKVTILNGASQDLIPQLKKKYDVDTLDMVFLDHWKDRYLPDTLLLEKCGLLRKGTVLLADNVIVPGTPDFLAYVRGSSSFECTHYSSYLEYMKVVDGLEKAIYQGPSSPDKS
In words: co-crystal structure ([…]) at […] Å; IC50 from activity-based high-throughput screen. In kind it is biochemical.

Assay [2] addresses T2, rat COMT (rCOMT), catechol-O-methyltransferase (Rattus norvegicus, UniProt P22734).
T2 construct: soluble N-terminally truncated form, lacks the N-terminal 43 residues
T2 sequence (P22734 44-264): T1 sequence (P22734 44-264 M134I/Y138C) with I91M, C95Y
The assay is described as follows: co-crystal structures ([…]), semi-holo, and ([…]), with tolcapone and Mg2+. It is filed as binding.

Positions count from the first letter of the chain named.

The compound `N=C(N)c1ccc(NC(=O)Nc2cccc(CN)c2)cc1` [4-[3-(3-aminomethylphenyl)-ureido]-benzamidine] gave an IC50 in assay [1] of 4.4 µM.

In the case of `Nc1ncnc2c1ncn2[C@@H]1O[C@H](C[C@@H](N)CC[C@H](N)C(=O)O)[C@@H](O)[C@H]1O` [sinefungin], the “co-crystal structures (7), semi-holo, and (8), with tolcapone and Mg2+” value in assay [2] is listed as “Co-crystal structure with the SAM analogue sinefungin. Semi-holo form”.

As a reminder, the IC50 is the concentration that gives 50% inhibition. Low values mean greater potency, high ones weaker potency.
